Laboratory results reported in patent US12054466B2, “Compounds for the treatment of clostridium difficile infection” (University of Notre Dame du Lac, priority 2016, dated 2024).
≈ marks a conversion by molar mass, not a printed value. Entries after “also recorded” stand apart in the source; their conditions may differ. Like-named read-outs stand apart in the source and are kept apart here.

What was measured:
[1] = tested on: C. difficile; details: cited from earlier work
[2] = tested on: C. difficile; test: MIC against C. difficile (strain not named; 14 strains overall); type: cell-based, Clostridium difficile
[3] = tested on: C. difficile BAA-1801; test: MIC, broth microdilution; type: cell-based; details: Clostridioides difficile
[4] = tested on: C. difficile ATCC43598; test: MIC, broth microdilution; type: cell-based; details: Clostridioides difficile
[5] = tested on: Veillonella sp. HM-49; test: MIC against common gut bacteria; type: cell-based; details: Veillonella, SP.HM49
[6] = tested on: C. difficile strain ATCC 43255; test: Mouse model of recurrent CDI, survival; details: po once a day for 5 days; oxadiazole 2 20 mg/kg/day, vancomycin 50 mg/kg/day
[7] = tested on: C. difficile ATCC43255; test: MIC, broth microdilution; type: cell-based; details: Clostridioides difficile
[8] = tested on: C. difficile NR49318; test: MIC, broth microdilution; type: cell-based; details: Clostridioides difficile
[9] = tested on: Fusobacterium nucleatum HM-992; test: MIC against common gut bacteria; type: cell-based; details: Fusobacterium nucleatum, HM992
[10] = tested on: C. difficile infection; details: patients treated for CDI; cited from earlier work
[11] = tested on: C. difficile BAA-1814; test: MIC, broth microdilution; type: cell-based; details: Clostridioides difficile
[12] = tested on: Corynebacterium sp. HM-784; test: MIC against common gut bacteria; type: cell-based; details: Corynebacterium, SP.HM784
Method: Minimally-inhibitory concentrations. MICs for C. difficile strains and the common gut bacteria were determined using broth microdilution techniques as reported earlier using brucella broth supplemented with hemin and vitamin K or supplemented BHIS broth (Babakhani et al., J Antimicrob Chemother 2013, 68(3), 515). Lactobacillus MRS broth was used for lactobacillus strains. […] All incubations unless specified otherwise were carried out at 24 or 48 h at 37° C. in an anaerobic chamber (Whitley DG250 workstation, Microbiology International, Frederick, MD). Corynebacterium and lactobacillus species were incubated aerobically.

[13] = tested on: Bacteroides fragilis HM-709; test: MIC against common gut bacteria; type: cell-based; details: Bacteroides fragilis, HM709
[14] = tested on: Lactobacillus gasseri HM-644; test: MIC against common gut bacteria; type: cell-based; details: Lactobacillus gasseri, HM644
[15] = tested on: C. difficile BAA-1803; test: MIC, broth microdilution; type: cell-based; details: Clostridioides difficile
[16] = tested on: Bacteroides vulgatus; test: MIC against common gut bacteria; type: cell-based; details: Phocaeicola vulgatus
[17] = tested on: Bacteroides eggerthii; test: MIC against common gut bacteria; type: cell-based
[18] = tested on: C. difficile NR49294; test: MIC, broth microdilution; type: cell-based; details: Clostridioides difficile
[19] = tested on: C. difficile NR49292; test: MIC, broth microdilution; type: cell-based; details: Clostridioides difficile
[20] = tested on: Bacteroides ovatus; test: MIC against common gut bacteria; type: cell-based
[21] = tested on: Bacteroides caccae; test: MIC against common gut bacteria; type: cell-based
[22] = tested on: Lactobacillus reuteri HM-102; test: MIC against common gut bacteria; type: cell-based; details: Limosilactobacillus reuteri, HM102
[23] = tested on: C. difficile BAA-1812; test: MIC, broth microdilution; type: cell-based; details: Clostridioides difficile
[24] = tested on: Bacteroides fragilis; test: MIC against common gut bacteria; type: cell-based
[25] = tested on: C. difficile strain ATCC 43255; test: Mouse model of recurrent CDI, second study: fecal cell, spore and toxin evaluation; type: in vivo, mice
Method: C. difficile Mouse Model. […] A negative vehicle control will be included. […] This study was conducted in duplicates.
A second study was conducted with oxadiazole 2 given po at 20 or 40 mg/kg for 5 days and vancomycin administered at 50 mg/kg po for 5 days. Fecal samples were collected on days 3, 7, and 10 for C. difficile spore and toxin evaluation.

[26] = tested on: C. difficile BAA-1804; test: MIC, broth microdilution; type: cell-based; details: Clostridioides difficile
[27] = tested on: Bifidobacterium longum HM-846; test: MIC against common gut bacteria; type: cell-based; details: Bifidobacterium longum, HM846

SMILES: CN[C@H](CC(C)C)C(=O)N[C@H]1C(=O)N[C@@H](CC(N)=O)C(=O)N[C@H]2C(=O)N[C@H]3C(=O)N[C@H](C(=O)N[C@H](C(=O)O)c4cc(O)cc(O)c4-c4cc3ccc4O)[C@H](O)c3ccc(c(Cl)c3)Oc3cc2cc(c3O[C@@H]2O[C@H](CO)[C@@H](O)[C@H](O)[C@H]2O[C@H]2C[C@](C)(N)[C@H](O)[C@H](C)O2)Oc2ccc(cc2Cl)[C@H]1O [vancomycin]
- Activity against C. difficile spores ([1]; at 8× or 80× MIC): not active
- Inhibition of toxin production ([1]; at 8×MIC): Neither vancomycin nor metronidazole inhibit toxin production
- MIC range in 14 C. difficile strains [2]: 0.25 to 1 µg/mL
- MIC ([3]; BAA1801, 24 h, read-out: MIC at 24 h): 0.25 µg/mL (≈ 0.173 µM)
- MIC ([3]; BAA1801, 48 h, read-out: MIC at 48 h): 0.25 µg/mL (≈ 0.173 µM)
- MIC ([4]; ATCC43598, 24 h, read-out: MIC at 24 h): 1 µg/mL (≈ 0.69 µM)
- MIC ([4]; ATCC43598, 48 h, read-out: MIC at 48 h): 1 µg/mL (≈ 0.69 µM)
- MIC [5]: > 32 µg/mL
- Survival after 25 days [6]: 45%
- MIC ([7]; ATCC43255, 24 h, read-out: MIC at 24 h): 0.5 µg/mL (≈ 0.345 µM)
- MIC ([7]; ATCC43255, 48 h, read-out: MIC at 48 h): 0.5 µg/mL (≈ 0.345 µM)
- MIC ([8]; NR49318, 24 h, read-out: MIC at 24 h): 0.25 µg/mL (≈ 0.173 µM)
- MIC ([8]; NR49318, 48 h, read-out: MIC at 48 h): 0.25 µg/mL (≈ 0.173 µM)
- MIC [9]: 0.25 µg/mL (≈ 0.173 µM)
- Patients with recurrence of the infection [10]: About 25%
- MIC ([11]; BAA1814, 24 h, read-out: MIC at 24 h): 0.5 µg/mL (≈ 0.345 µM)
- MIC ([11]; BAA1814, 48 h, read-out: MIC at 48 h): 0.5 µg/mL (≈ 0.345 µM)
- MIC [12]: 0.25 µg/mL (≈ 0.173 µM)
- MIC [13]: 16 µg/mL (≈ 11 µM)
- MIC [14]: 1 µg/mL (≈ 0.69 µM)
- MIC ([15]; BAA1803, 24 h, read-out: MIC at 24 h): 1 µg/mL (≈ 0.69 µM)
- MIC ([15]; BAA1803, 48 h, read-out: MIC at 48 h): 2 µg/mL (≈ 1.38 µM)
- MIC [16]: 16 µg/mL (≈ 11 µM)
- MIC [17]: 8 µg/mL (≈ 5.52 µM)
- MIC ([18]; NR49294, 24 h, read-out: MIC at 24 h): 0.25 µg/mL (≈ 0.173 µM)
- MIC ([18]; NR49294, 48 h, read-out: MIC at 48 h): 0.25 µg/mL (≈ 0.173 µM)
- MIC ([19]; NR49292, 24 h, read-out: MIC at 24 h): 0.25 µg/mL (≈ 0.173 µM)
- MIC ([19]; NR49292, 48 h, read-out: MIC at 48 h): 0.25 µg/mL (≈ 0.173 µM)
- MIC [20]: 16 µg/mL (≈ 11 µM)
- MIC [21]: 32 µg/mL (≈ 22.1 µM)
- MIC [22]: > 32 µg/mL
- MIC ([23]; BAA1812, 24 h, read-out: MIC at 24 h): 0.25 µg/mL (≈ 0.173 µM)
- MIC ([23]; BAA1812, 48 h, read-out: MIC at 48 h): 0.5 µg/mL (≈ 0.345 µM)
- MIC [24]: 16 µg/mL (≈ 11 µM)
- Spores in feces ([25]; 50 mg/kg vancomycin, in words): spores were observed on day 10; also recorded: no spores were observed until day 10
- Reduction in vegetative cells in feces by day 10 ([25]; dose of compound 2 not stated): 2 log
- Total cell counts in feces, reduction on day 10 compared to day 3 ([25]; vancomycin 50 mg/kg po for 5 days): 1.02 log
- Toxin in feces ([25]; vancomycin group, day 10, in words): toxin was observed
- MIC ([26]; BAA1804, 24 h, read-out: MIC at 24 h): 1 µg/mL (≈ 0.69 µM)
- MIC ([26]; BAA1804, 48 h, read-out: MIC at 48 h): 1 µg/mL (≈ 0.69 µM)
- MIC [27]: 0.25 µg/mL (≈ 0.173 µM)
